Measured values as given in patent publication US20160311831A1, “Imidazotriazinones as PDE1 Inhibitors” (H. Lundbeck A/S, priority 2015, published 2016).

Key:
Format in all cases: biochemical
[1] = molecular target: PDE1B (Homo sapiens, UniProt Q01064); experiment: PDE1 inhibition assay (PDE1B), SPA with tritium labelled cAMP; conditions: 15 nM tritium labelled cAMP, 1 hr at room temperature
Protocol: (§1) PDE1A, PDE1B and PDE1C assays were performed as follows: the assays was performed in 60 μL samples containing a fixed amount of the PDE1 enzym1 (sufficient to convert 20-25% of the cyclic nucleotide substrate), a buffer (50 mM HEPES pH 7.6; 10 mM MgCl2; 0.02% Tween20), 0.1 mg/mL BSA, 15 nM tritium labelled cAMP and varying amounts of inhibitors. Reactions were initiated by addition of the cyclic nucleotide substrate, and reactions were allowed to proceed for 1 hr at room temperature before being terminated through mixing with 20 μL (0.2 mg) yttrium silicate SPA beads (PerkinElmer). The beads were allowed to settle for 1 hr in the dark before the plates were counted in a Wallac 1450 Microbeta counter. The measured signals were converted to activity relative to an uninhibited control (100%) and IC50 values were calculated using XIFit (model 205, IDBS).

[2] = molecular target: PDE1A (Homo sapiens, UniProt P54750); experiment: PDE1 inhibition assay (PDE1A), SPA with tritium labelled cAMP; conditions: 15 nM tritium labelled cAMP, 1 hr at room temperature
Protocol: as §1

[3] = molecular target: PDE1C (Homo sapiens, UniProt Q14123); experiment: PDE1 inhibition assay (PDE1C), SPA with tritium labelled cAMP; conditions: 15 nM tritium labelled cAMP, 1 hr at room temperature
Protocol: as §1

[4] = molecular target: PDE9 (Homo sapiens, UniProt O76083); experiment: PDE9 inhibition assay, SPA with 3H-cAMP; conditions: compound at 10 microM; 10 nM 3H-cAMP, 1 hr incubation
Protocol: A PDE9 assay may for example, be performed as follows: The assay is performed in 60 μL samples containing a fixed amount of the relevant PDE enzyme (sufficient to convert 20-25% of the cyclic nucleotide substrate), a buffer (50 mM HEPES7.6; 10 mM MgCl2; 0.02% Tween20), 0.1 mg/mL BSA, 225 pCi of ^3H-labelled cyclic nucleotide substrate, tritium labeled cAMP to a final concentration of 5 nM and varying amounts of inhibitors. Reactions are initiated by addition of the cyclic nucleotide substrate, and reactions are allowed to proceed for one hr at room temperature before being terminated through mixing with 15 μL 8 mg/mL yttrium silicate SPA beads (Amersham). The beads are allowed to settle for one hr in the dark before the plates are counted in a Wallac 1450 Microbeta counter. The measured signal can be converted to activity relative to an uninhibited control (100%) and IC50 values can be calculated using the Xlfit extension to EXCEL.
In the context of the present invention the assay was performed in 60 uL assay buffer (50 mM HEPES pH 7.6; 10 mM MgCl2; 0.02% Tween20) containing enough PDE9 to convert 20-25% of 10 nM ^3H-cAMP and varying amounts of inhibitors. Following a 1 hr incubation the reactions were terminated by addition of 15 uL 8 mg/mL yttrium silicate SPA beads (Amersham). The beads were allowed to settle for one hr in the dark before the plates were counted in a Wallac 1450 Microbeta counter.

PDE1B, sequence (Q01064 whole entry): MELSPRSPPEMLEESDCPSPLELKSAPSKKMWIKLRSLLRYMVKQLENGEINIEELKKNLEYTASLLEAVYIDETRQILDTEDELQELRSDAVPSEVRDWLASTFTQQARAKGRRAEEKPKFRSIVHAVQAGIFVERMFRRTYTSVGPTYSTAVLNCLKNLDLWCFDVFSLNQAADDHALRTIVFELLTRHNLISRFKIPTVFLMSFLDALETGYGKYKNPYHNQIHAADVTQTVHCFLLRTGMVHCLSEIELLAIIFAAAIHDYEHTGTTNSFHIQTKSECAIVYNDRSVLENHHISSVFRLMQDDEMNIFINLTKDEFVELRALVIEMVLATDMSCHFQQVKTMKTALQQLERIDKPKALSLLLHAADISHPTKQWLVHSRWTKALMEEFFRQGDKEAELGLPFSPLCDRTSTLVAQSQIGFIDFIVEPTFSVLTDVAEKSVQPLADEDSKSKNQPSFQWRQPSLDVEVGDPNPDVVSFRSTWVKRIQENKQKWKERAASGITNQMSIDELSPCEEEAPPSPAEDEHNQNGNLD
PDE9, sequence (O76083 whole entry): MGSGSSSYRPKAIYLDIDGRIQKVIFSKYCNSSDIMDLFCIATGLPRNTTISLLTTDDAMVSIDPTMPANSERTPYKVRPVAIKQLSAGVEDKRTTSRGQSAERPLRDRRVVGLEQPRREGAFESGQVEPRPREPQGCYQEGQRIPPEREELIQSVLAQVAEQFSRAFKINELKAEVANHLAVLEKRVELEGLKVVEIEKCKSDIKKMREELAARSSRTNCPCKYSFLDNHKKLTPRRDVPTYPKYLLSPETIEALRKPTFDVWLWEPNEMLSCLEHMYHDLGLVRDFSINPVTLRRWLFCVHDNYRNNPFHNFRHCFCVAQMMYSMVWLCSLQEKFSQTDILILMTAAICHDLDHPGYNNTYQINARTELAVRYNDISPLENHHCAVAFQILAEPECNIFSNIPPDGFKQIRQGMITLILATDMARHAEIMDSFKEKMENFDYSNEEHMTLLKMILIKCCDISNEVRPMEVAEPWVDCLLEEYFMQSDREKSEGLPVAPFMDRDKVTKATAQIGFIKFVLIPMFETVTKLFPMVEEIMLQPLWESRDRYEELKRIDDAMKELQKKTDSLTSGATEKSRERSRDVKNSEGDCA
PDE1A, sequence (P54750 whole entry): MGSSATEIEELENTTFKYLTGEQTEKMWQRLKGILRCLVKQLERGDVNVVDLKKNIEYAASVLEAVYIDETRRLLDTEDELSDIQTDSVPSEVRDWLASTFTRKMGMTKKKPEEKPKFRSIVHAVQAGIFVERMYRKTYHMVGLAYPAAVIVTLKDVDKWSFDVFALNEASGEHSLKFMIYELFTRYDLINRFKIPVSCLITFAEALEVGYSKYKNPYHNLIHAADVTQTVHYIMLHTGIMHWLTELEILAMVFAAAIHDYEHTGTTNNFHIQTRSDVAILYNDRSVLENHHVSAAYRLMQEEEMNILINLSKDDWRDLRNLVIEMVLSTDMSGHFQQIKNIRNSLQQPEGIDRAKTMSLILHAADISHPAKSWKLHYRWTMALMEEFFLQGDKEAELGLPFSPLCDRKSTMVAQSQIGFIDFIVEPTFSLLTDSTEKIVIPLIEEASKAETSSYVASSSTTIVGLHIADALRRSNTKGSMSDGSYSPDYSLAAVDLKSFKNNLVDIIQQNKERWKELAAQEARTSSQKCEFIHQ
PDE1C, sequence (Q14123 whole entry): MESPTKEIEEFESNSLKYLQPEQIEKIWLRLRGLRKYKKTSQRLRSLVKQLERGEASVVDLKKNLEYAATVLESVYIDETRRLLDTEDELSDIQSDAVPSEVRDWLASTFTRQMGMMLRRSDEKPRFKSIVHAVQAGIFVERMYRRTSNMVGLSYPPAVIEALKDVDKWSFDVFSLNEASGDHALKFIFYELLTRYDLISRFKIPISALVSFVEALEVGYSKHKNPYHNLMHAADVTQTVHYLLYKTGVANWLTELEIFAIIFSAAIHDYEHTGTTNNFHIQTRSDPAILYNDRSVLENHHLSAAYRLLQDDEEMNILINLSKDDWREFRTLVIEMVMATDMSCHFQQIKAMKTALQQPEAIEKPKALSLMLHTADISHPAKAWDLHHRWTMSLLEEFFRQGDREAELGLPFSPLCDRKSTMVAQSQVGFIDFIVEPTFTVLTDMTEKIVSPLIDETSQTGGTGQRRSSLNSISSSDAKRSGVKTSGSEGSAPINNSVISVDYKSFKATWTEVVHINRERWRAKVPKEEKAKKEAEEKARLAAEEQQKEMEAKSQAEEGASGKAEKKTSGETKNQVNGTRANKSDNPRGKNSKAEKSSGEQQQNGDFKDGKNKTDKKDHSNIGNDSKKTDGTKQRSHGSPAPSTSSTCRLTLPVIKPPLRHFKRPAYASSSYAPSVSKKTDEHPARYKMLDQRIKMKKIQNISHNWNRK

SMILES	IC50 [1] [µM]	IC50 [2] [µM]	IC50 [3] [µM]	inhibition at 10 µM [4] [%]
COc1ccc(Cn2c(C)nn3c(C4CCOCC4)ncc3c2=O)cc1 [Example 23, 3-(4-Methoxybenzyl)-2-methyl-7-(tetrahydro-2H-pyran-4-yl)imidazo[5,1-f][1,2,4]triazin-4(3H)-one]	0.026	0.029	0.021	-4
Cc1nn2c(C3CCOCC3)ncc2c(=O)n1Cc1ccc(Cl)cc1 [Example 24, 3-(4-Chlorobenzyl)-2-methyl-7-(tetrahydro-2H-pyran-4-yl)imidazo[5,1-f][1,2,4]triazin-4(3H)-one]	0.061	0.035	0.104	-11
CCc1nn2c(C3CCOCC3)ncc2c(=O)n1Cc1cccc(F)c1 [Example 25, 2-Ethyl-3-(3-fluorobenzyl)-7-(tetrahydro-2H-pyran-4-yl)imidazo[5,1-f][1,2,4]triazin-4(3H)-one]	0.131	0.052	0.015	8
O=c1c2cnc(C3CCOCC3)n2ncn1CC1CCCCC1 [Example 26, 3-(Cyclohexylmethyl)-7-(tetrahydro-2H-pyran-4-yl)imidazo[5,1-f][1,2,4]triazin-4(3H)-one]	0.376	0.554	0.103	8
O=c1c2cnc(C3CCOCC3)n2ncn1CC1CCCCCC1 [Example 29, 3-(Cycloheptylmethyl)-7-(tetrahydro-2H-pyran-4-yl)imidazo[5,1-f][1,2,4]triazin-4(3H)-one]	0.052	0.033	0.025	21
